Laboratory results from PMC4076210, “Discovery of Novel AKT Inhibitors with Enhanced Anti-Tumor Effects in Combination with the MEK Inhibitor” (PLoS ONE, 2014).
Where two headings read alike, the source gives them in different places.

Assays:
Assay in all cases: Kinase panel
Assay type in all cases: biochemical
Abl(h) = biological target: T1, Abl(h) (Homo sapiens, UniProt P00519)
T1 construct: purchased Millipore KinaseProfiler

Aurora-A(h) = biological target: T2, Aurora-A(h) (Homo sapiens, UniProt O14965)
T2 construct: purchased Millipore KinaseProfiler
T2 sequence (O14965 1-403): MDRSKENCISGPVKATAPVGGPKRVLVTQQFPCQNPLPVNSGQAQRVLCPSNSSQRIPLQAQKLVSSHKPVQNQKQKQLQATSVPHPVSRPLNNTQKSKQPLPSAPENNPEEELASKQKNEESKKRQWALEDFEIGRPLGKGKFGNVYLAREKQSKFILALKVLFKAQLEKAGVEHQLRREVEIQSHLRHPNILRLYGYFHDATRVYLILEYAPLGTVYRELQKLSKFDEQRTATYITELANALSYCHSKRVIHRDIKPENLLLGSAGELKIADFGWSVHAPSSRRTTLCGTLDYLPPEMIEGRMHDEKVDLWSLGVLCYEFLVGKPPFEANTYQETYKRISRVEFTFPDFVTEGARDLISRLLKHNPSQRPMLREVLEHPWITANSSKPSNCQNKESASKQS

CDK5/p25(h) = biological target: T3, CDK5/p25(h) (Homo sapiens, UniProt Q00535)
T3 construct: purchased Millipore KinaseProfiler

CK2(h) = biological target: T4, CK2(h) (Homo sapiens, UniProt P68400)
T4 construct: purchased Millipore KinaseProfiler

EphA1(h) = biological target: T5, EphA1(h) (Homo sapiens, UniProt P21709)
T5 construct: purchased Millipore KinaseProfiler
T5 sequence (P21709 26-976): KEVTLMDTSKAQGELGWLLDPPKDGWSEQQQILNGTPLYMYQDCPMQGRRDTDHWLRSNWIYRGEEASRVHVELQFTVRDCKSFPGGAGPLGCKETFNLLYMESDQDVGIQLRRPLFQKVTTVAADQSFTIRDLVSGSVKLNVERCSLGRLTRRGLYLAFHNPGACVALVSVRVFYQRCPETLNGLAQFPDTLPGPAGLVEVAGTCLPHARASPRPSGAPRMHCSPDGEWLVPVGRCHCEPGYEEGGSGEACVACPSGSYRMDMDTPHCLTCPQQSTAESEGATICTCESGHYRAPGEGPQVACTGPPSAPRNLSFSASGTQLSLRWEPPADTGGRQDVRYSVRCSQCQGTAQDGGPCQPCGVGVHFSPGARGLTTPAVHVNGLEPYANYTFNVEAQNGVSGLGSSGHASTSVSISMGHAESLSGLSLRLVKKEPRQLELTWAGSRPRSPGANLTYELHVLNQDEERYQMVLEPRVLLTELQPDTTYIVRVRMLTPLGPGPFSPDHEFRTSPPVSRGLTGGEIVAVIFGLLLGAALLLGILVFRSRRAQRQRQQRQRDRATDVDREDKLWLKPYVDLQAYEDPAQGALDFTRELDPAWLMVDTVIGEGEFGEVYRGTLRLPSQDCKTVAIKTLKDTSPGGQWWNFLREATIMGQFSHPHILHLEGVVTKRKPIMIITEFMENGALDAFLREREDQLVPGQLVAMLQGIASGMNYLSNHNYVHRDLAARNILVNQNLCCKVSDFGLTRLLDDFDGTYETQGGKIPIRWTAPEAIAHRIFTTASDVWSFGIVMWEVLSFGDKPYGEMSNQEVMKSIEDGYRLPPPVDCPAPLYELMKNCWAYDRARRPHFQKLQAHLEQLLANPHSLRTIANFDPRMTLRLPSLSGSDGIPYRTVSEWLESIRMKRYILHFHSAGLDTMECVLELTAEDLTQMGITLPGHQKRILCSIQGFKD

FGFR3(h) = biological target: T6, FGFR3(h) (Homo sapiens, UniProt P22607)
T6 construct: purchased Millipore KinaseProfiler

GRK5(h) = biological target: T7, GRK5(h) (Homo sapiens, UniProt P34947)
T7 construct: purchased Millipore KinaseProfiler

Hck(h) = biological target: T8, Hck(h) (Homo sapiens, UniProt P08631)
T8 construct: purchased Millipore KinaseProfiler

JNK2α2(h) = biological target: T9, JNK2α2(h) (Homo sapiens, UniProt P45984)
T9 construct: purchased Millipore KinaseProfiler

MKK7β(h) = biological target: T10, MKK7β(h) (Homo sapiens, UniProt O14733)
T10 construct: purchased Millipore KinaseProfiler
T10 sequence (O14733 1-419): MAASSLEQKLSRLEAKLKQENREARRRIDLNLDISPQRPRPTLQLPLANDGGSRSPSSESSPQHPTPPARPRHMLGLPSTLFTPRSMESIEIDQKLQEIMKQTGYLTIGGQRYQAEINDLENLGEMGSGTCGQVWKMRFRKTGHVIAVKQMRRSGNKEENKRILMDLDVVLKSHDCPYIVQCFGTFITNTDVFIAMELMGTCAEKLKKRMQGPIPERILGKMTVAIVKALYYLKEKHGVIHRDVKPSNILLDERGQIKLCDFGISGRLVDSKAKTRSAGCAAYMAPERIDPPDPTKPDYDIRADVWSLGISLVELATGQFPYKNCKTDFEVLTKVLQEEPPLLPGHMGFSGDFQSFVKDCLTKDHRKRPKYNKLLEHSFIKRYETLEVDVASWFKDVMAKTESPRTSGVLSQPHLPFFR

MSK2(h) = biological target: T11, MSK2(h) (Homo sapiens, UniProt O75676)
T11 construct: purchased Millipore KinaseProfiler

NEK6(h) = biological target: T12, NEK6(h) (Homo sapiens, UniProt Q9HC98)
T12 construct: purchased Millipore KinaseProfiler

PAK5(h) = biological target: T13, PAK5(h) (Homo sapiens, UniProt Q9P286)
T13 construct: purchased Millipore KinaseProfiler

Pim-3(h) = biological target: T14, Pim-3(h) (Homo sapiens, UniProt Q86V86)
T14 construct: purchased Millipore KinaseProfiler

Ret (V804L)(h) = biological target: T15, Ret (V804L)(h) (Homo sapiens, UniProt P07949, V804L)
T15 construct: purchased Millipore KinaseProfiler

Src(T341M)(h) = biological target: T16, Src(T341M)(h) (Homo sapiens, UniProt P12931, T341M)
T16 construct: purchased Millipore KinaseProfiler
T16 sequence (P12931 whole entry T341M): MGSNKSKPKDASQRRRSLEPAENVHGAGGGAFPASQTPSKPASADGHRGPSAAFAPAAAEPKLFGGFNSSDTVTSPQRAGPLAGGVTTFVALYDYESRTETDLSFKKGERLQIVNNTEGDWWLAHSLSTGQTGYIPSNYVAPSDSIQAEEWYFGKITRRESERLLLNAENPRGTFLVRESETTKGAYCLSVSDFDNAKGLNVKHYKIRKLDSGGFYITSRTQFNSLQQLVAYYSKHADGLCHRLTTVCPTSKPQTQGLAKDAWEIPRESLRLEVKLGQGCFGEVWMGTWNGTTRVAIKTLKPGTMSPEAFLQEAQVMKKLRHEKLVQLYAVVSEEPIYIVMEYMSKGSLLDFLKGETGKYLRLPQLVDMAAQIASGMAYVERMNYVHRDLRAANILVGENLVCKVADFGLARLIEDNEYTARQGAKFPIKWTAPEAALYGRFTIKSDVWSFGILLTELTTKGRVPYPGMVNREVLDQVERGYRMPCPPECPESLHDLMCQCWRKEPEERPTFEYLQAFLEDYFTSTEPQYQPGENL

T11 sequence (O75676 whole entry): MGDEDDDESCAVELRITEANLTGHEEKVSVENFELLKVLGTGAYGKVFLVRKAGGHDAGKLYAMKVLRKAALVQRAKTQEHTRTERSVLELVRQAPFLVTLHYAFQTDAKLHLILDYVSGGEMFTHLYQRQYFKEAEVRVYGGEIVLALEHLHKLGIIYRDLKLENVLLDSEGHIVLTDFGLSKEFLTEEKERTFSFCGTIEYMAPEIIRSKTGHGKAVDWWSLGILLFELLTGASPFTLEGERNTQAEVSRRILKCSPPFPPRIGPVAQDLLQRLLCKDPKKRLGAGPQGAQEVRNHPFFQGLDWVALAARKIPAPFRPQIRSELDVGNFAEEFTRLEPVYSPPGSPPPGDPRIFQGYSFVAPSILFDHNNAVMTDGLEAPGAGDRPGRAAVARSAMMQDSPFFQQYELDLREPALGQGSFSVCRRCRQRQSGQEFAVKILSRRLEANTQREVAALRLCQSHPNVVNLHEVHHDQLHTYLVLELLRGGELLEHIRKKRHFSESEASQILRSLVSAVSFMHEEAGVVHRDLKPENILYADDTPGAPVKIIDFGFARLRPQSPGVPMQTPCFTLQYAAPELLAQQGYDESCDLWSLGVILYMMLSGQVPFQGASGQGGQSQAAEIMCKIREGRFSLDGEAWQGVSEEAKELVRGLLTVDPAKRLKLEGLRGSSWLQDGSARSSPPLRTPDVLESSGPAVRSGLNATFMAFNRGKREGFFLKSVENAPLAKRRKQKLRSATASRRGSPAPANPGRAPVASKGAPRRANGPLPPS
T6 sequence (P22607 23-806): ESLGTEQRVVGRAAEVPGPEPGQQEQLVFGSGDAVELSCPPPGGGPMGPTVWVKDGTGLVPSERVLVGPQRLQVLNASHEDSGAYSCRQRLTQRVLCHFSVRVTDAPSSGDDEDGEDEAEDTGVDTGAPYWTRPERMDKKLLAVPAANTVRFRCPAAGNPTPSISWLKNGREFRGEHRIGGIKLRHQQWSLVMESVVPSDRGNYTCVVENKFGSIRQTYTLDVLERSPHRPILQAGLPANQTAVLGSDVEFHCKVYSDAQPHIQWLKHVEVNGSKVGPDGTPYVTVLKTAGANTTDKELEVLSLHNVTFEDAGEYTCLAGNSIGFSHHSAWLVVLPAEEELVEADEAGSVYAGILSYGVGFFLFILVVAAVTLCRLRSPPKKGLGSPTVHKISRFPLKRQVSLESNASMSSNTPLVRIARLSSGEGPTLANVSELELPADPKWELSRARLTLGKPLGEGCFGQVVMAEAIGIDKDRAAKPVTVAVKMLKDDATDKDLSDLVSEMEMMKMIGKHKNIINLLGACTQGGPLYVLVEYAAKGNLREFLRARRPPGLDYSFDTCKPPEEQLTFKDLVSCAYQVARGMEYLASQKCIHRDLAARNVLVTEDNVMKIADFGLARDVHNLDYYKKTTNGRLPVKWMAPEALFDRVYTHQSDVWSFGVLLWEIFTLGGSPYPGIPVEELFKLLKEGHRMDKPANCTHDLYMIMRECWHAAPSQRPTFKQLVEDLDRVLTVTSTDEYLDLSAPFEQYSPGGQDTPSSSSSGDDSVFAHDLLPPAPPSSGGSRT
T9 sequence (P45984 whole entry): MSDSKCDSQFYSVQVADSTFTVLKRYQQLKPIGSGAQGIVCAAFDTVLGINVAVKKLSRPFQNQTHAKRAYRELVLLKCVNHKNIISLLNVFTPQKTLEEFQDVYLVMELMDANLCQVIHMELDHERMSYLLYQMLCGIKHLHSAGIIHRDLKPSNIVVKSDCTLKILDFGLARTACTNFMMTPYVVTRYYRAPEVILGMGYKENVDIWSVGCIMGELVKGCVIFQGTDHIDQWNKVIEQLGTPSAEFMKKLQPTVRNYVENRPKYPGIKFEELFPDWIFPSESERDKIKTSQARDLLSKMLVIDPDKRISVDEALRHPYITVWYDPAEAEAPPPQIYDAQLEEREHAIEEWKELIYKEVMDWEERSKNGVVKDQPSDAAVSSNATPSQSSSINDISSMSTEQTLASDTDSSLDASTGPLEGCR
T12 sequence (Q9HC98 whole entry): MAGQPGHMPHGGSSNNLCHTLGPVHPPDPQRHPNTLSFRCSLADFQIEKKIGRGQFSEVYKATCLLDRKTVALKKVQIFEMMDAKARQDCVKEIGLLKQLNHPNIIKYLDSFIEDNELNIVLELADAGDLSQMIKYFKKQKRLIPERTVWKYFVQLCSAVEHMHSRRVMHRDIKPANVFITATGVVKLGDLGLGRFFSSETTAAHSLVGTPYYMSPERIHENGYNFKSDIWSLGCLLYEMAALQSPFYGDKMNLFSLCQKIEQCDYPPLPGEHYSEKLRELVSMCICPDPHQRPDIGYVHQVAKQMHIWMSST
T7 sequence (P34947 whole entry): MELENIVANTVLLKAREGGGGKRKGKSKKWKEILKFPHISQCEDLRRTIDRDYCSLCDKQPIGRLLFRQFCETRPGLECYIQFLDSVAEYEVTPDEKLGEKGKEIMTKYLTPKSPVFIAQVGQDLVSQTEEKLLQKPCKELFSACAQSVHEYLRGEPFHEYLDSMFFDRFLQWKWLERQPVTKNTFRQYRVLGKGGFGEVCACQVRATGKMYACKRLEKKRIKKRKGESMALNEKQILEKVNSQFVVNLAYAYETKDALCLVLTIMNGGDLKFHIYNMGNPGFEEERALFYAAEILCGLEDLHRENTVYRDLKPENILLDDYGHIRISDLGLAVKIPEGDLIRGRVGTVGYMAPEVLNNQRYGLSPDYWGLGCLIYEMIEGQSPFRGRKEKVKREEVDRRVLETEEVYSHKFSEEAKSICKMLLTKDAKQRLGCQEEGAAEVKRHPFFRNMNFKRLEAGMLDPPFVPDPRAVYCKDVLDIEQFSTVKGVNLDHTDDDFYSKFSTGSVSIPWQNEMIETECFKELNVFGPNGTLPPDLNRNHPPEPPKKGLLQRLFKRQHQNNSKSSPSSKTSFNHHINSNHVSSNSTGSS
T8 sequence (P08631 whole entry): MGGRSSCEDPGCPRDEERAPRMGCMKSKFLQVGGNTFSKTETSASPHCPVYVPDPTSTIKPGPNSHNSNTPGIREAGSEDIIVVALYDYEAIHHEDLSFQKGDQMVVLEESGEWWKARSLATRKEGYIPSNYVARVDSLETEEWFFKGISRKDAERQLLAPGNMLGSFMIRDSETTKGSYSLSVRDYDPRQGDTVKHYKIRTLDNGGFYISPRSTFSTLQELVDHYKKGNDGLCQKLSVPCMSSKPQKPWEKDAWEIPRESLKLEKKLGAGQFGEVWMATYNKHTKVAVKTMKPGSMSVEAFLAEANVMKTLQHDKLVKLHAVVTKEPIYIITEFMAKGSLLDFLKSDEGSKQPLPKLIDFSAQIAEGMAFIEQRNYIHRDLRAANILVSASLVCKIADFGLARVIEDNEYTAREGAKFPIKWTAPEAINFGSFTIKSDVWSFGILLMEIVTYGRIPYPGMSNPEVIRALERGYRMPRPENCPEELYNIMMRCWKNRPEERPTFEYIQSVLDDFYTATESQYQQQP
T3 sequence (Q00535 whole entry): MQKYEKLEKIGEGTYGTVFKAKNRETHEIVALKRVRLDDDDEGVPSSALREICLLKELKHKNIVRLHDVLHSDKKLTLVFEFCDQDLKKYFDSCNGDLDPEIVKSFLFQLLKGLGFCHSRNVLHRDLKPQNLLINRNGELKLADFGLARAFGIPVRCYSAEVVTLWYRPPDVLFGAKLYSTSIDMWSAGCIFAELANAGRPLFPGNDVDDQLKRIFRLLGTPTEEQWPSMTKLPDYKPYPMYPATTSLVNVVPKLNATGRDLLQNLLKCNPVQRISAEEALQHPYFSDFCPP
T3 sequence (Q15078 99-307 partner limits assumed): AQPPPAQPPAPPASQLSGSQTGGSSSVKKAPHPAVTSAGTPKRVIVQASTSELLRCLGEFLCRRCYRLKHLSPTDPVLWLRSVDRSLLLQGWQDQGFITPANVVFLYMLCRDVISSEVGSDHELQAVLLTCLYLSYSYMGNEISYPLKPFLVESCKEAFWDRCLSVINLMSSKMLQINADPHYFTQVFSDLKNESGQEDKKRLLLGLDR

Cn1ncc(Cl)c1-c1cc(C(=O)N[C@H](CN)Cc2cccc(F)c2)sc1Cl [GSK2110183]
inhibition at 0.5 µM (Abl(h)): 8% | inhibition at 10 µM (Abl(h)): 4% | inhibition at 0.5 µM (Aurora-A(h)): 0% | inhibition at 10 µM (Aurora-A(h)): 23% | inhibition at 0.5 µM (CDK5/p25(h)): -4% | inhibition at 10 µM (CDK5/p25(h)): 28% | inhibition at 0.5 µM (CK2(h)): 3% | inhibition at 10 µM (CK2(h)): 8% | inhibition at 0.5 µM (EphA1(h)): -14% | inhibition at 10 µM (EphA1(h)): -5% | inhibition at 0.5 µM (FGFR3(h)): -6% | inhibition at 10 µM (FGFR3(h)): 9% | inhibition at 0.5 µM (GRK5(h)): -8% | inhibition at 10 µM (GRK5(h)): -1% | inhibition at 0.5 µM (Hck(h)): -21% | inhibition at 10 µM (Hck(h)): -8% | inhibition at 0.5 µM (JNK2α2(h)): -15% | inhibition at 10 µM (JNK2α2(h)): -13% | inhibition at 0.5 µM (MKK7β(h)): 12% | inhibition at 10 µM (MKK7β(h)): 28% | inhibition at 0.5 µM (MSK2(h)): 85% | inhibition at 10 µM (MSK2(h)): 97% | inhibition at 0.5 µM (NEK6(h)): -25% | inhibition at 10 µM (NEK6(h)): -11% | inhibition at 0.5 µM (PAK5(h)): 2% | inhibition at 10 µM (PAK5(h)): 49% | inhibition at 0.5 µM (Pim-3(h)): -25% | inhibition at 10 µM (Pim-3(h)): -13% | inhibition at 0.5 µM (Ret (V804L)(h)): -5% | inhibition at 10 µM (Ret (V804L)(h)): 16% | inhibition at 0.5 µM (Src(T341M)(h)): 24% | inhibition at 10 µM (Src(T341M)(h)): 83%

Cn1ncc(Cl)c1-c1cc(C(=O)N[C@H](CN)Cc2ccc(F)c(F)c2)oc1Cl [GSK2141795]
inhibition at 0.5 µM (Abl(h); 0.5 µM, read-out: % Inhibition): 12% | inhibition at 10 µM (Abl(h); 10 µM, read-out: % Inhibition): 13% | inhibition at 0.5 µM (Aurora-A(h); 0.5 µM, read-out: % Inhibition): -10% | inhibition at 10 µM (Aurora-A(h); 10 µM, read-out: % Inhibition): 31% | inhibition at 0.5 µM (CDK5/p25(h); 0.5 µM, read-out: % Inhibition): -8% | inhibition at 10 µM (CDK5/p25(h); 10 µM, read-out: % Inhibition): 37% | inhibition at 0.5 µM (CK2(h); 0.5 µM, read-out: % Inhibition): 4% | inhibition at 10 µM (CK2(h); 10 µM, read-out: % Inhibition): 9% | inhibition at 0.5 µM (EphA1(h); 0.5 µM, read-out: % Inhibition): 4% | inhibition at 10 µM (EphA1(h); 10 µM, read-out: % Inhibition): 53% | inhibition at 0.5 µM (FGFR3(h); 0.5 µM, read-out: % Inhibition): -14% | inhibition at 10 µM (FGFR3(h); 10 µM, read-out: % Inhibition): 2% | inhibition at 0.5 µM (GRK5(h); 0.5 µM, read-out: % Inhibition): 4% | inhibition at 10 µM (GRK5(h); 10 µM, read-out: % Inhibition): 43% | inhibition at 0.5 µM (Hck(h); 0.5 µM, read-out: % Inhibition): -5% | inhibition at 10 µM (Hck(h); 10 µM, read-out: % Inhibition): 27% | inhibition at 0.5 µM (JNK2α2(h); 0.5 µM, read-out: % Inhibition): -15% | inhibition at 10 µM (JNK2α2(h); 10 µM, read-out: % Inhibition): -23% | inhibition at 0.5 µM (MKK7β(h); 0.5 µM, read-out: % Inhibition): -13% | inhibition at 10 µM (MKK7β(h); 10 µM, read-out: % Inhibition): -30% | inhibition at 0.5 µM (MSK2(h); 0.5 µM, read-out: % Inhibition): 98% | inhibition at 10 µM (MSK2(h); 10 µM, read-out: % Inhibition): 102% | inhibition at 0.5 µM (NEK6(h); 0.5 µM, read-out: % Inhibition): -17% | inhibition at 10 µM (NEK6(h); 10 µM, read-out: % Inhibition): -22% | inhibition at 0.5 µM (PAK5(h); 0.5 µM, read-out: % Inhibition): 0% | inhibition at 10 µM (PAK5(h); 10 µM, read-out: % Inhibition): 40% | inhibition at 0.5 µM (Pim-3(h); 0.5 µM, read-out: % Inhibition): -10% | inhibition at 10 µM (Pim-3(h); 10 µM, read-out: % Inhibition): -4% | inhibition at 0.5 µM (Ret (V804L)(h); 0.5 µM, read-out: % Inhibition): 4% | inhibition at 10 µM (Ret (V804L)(h); 10 µM, read-out: % Inhibition): 21% | inhibition at 0.5 µM (Src(T341M)(h); 0.5 µM, read-out: % Inhibition): 34% | inhibition at 10 µM (Src(T341M)(h); 10 µM, read-out: % Inhibition): 88%
